# According to the CombiSolv-Exp solvation set (Vermeire and Green 2021):
# Experiment: solvent given as SMILES
# [1] = in CCCCCCCC(=O)OCC(COC(=O)CCCCCCC)OC(=O)CCCCCCC
# [2] = in CCCCCCCCC=CCCCCCCCC(=O)OCC(COC(=O)CCCCCCCC=CCCCCCCCC)OC(=O)CCCCCCCC=CCCCCCCCC
compound,measurement,setting,value
OC1CCCCC1,"solvation free energy, 298 K",in Brc1ccccc1,-6.47 kcal/mol
same,"solvation free energy, 298 K",in C1CCOC1,-7.24 kcal/mol
same,"solvation free energy, 298 K",in CC#N,-6.37 kcal/mol
same,"solvation free energy, 298 K",in CC(C)=O,-6.94 kcal/mol
same,"solvation free energy, 298 K",in CC(C)CC(C)(C)C,-5.02 kcal/mol
same,"solvation free energy, 298 K",in CC(C)O,-7.35 kcal/mol
same,"solvation free energy, 298 K",in CCCCCCCCCCCCCCCC,-4.89 kcal/mol
same,"solvation free energy, 298 K",in CCCCCCCCCCO,-7.49 kcal/mol
same,"solvation free energy, 298 K",in CCCCCCCCO,-7.02 kcal/mol
same,"solvation free energy, 298 K",in CCCCOC(C)=O,-7.07 kcal/mol
same,"solvation free energy, 298 K",in CO,-7.69 kcal/mol
same,"solvation free energy, 298 K",in O,-5.44 kcal/mol
same,"solvation free energy, 298 K",in [2H]O[2H],-5.7 kcal/mol
O=[N+]([O-])c1cccc(Cl)c1,"solvation free energy, 298 K",in O,-4.45 kcal/mol
Clc1cc(Cl)c(-c2c(Cl)c(Cl)cc(Cl)c2Cl)cc1Cl,"solvation free energy, 298 K",in O,-2.77 kcal/mol
C=CCC=CC,"solvation free energy, 298 K",in C=CCCCCCCCCCCCCCC,-3.46 kcal/mol
same,"solvation free energy, 298 K",in O,1.09 kcal/mol
Nc1ccc(S(N)(=O)=O)cc1,"solvation free energy, 298 K",in O,-14.8 kcal/mol
FC(F)Cl,"solvation free energy, 298 K",[1],-1.69 kcal/mol
same,"solvation free energy, 298 K",in CCCCCCCCC,-1.16 kcal/mol
CCCl,"solvation free energy, 298 K",in CC(=O)N(C)C,-2.93 kcal/mol
same,"solvation free energy, 298 K",in CC(C)(C)O,-2.44 kcal/mol
same,"solvation free energy, 298 K",in CC(C)CCO,-2.43 kcal/mol
same,"solvation free energy, 298 K",in CC(C)CO,-2.43 kcal/mol
same,"solvation free energy, 298 K",in CC(C)O,-2.47 kcal/mol
same,"solvation free energy, 298 K",in CCC(C)(C)O,-2.5 kcal/mol
same,"solvation free energy, 298 K",in CCC(C)CO,-2.4 kcal/mol
same,"solvation free energy, 298 K",in CCC(C)O,-2.41 kcal/mol
same,"solvation free energy, 298 K",in CCC(O)CC,-2.41 kcal/mol
same,"solvation free energy, 298 K",in CCCC(C)O,-2.36 kcal/mol
same,"solvation free energy, 298 K",[1],-2.56 kcal/mol
same,"solvation free energy, 298 K",in CCCCCCCCC,-2.34 kcal/mol
same,"solvation free energy, 298 K",in CCCCCCCCO,-2.32 kcal/mol
same,"solvation free energy, 298 K",in CCCCCO,-2.47 kcal/mol
same,"solvation free energy, 298 K",in CCCCO,-2.5 kcal/mol
same,"solvation free energy, 298 K",in CCCO,-2.54 kcal/mol
same,"solvation free energy, 298 K",in CN(C)C=O,-2.74 kcal/mol
same,"solvation free energy, 298 K",in CO,-2.63 kcal/mol
same,"solvation free energy, 298 K",in Cc1ccc(C)cc1,-2.83 kcal/mol
same,"solvation free energy, 298 K",in Cc1cccc(C)c1,-2.87 kcal/mol
same,"solvation free energy, 298 K",in Cc1ccccc1C,-2.86 kcal/mol
same,"solvation free energy, 298 K",in Clc1ccccc1,-2.96 kcal/mol
same,"solvation free energy, 298 K",in N#Cc1ccccc1,-2.88 kcal/mol
same,"solvation free energy, 298 K",in O,-0.63 kcal/mol
CCCC(=O)CC(=O)CCC,"solvation free energy, 298 K",in O,-4.33 kcal/mol
N#CCCOCCC#N,"solvation free energy, 298 K",in CCCCCCC,-7.82 kcal/mol
CCOC(C)(C)C,"solvation free energy, 298 K",in C1CCCCC1,-4.12 kcal/mol
same,"solvation free energy, 298 K",in CC(=O)N(C)C,-3.53 kcal/mol
same,"solvation free energy, 298 K",in CCCCCC,-4.07 kcal/mol
same,"solvation free energy, 298 K",in CCCCCCC,-3.98 kcal/mol
same,"solvation free energy, 298 K",in CCCCCCCCO,-3.67 kcal/mol
same,"solvation free energy, 298 K",in CCCCN(C=O)CCCC,-3.6 kcal/mol
same,"solvation free energy, 298 K",in CCN1CCCC1=O,-3.42 kcal/mol
same,"solvation free energy, 298 K",in CCN(CC)C(C)=O,-3.66 kcal/mol
same,"solvation free energy, 298 K",in CCNC(C)=O,-3.49 kcal/mol
same,"solvation free energy, 298 K",in CCNC=O,-3.38 kcal/mol
same,"solvation free energy, 298 K",in CCOCC,-4.22 kcal/mol
same,"solvation free energy, 298 K",in CN1CCCCC1=O,-3.44 kcal/mol
same,"solvation free energy, 298 K",in CN(C)C=O,-3.31 kcal/mol
same,"solvation free energy, 298 K",in CNC(C)=O,-3.4 kcal/mol
same,"solvation free energy, 298 K",in CNC=O,-3.21 kcal/mol
same,"solvation free energy, 298 K",in CO,-4.07 kcal/mol
same,"solvation free energy, 298 K",in O,-1.61 kcal/mol
O=C(OCc1ccccc1)c1ccccc1C(=O)OCc1ccccc1,"solvation free energy, 298 K",in O,-11.3 kcal/mol
Clc1ccc(Cl)c(-c2ccccc2Cl)c1,"solvation free energy, 298 K",[2],-9.75 kcal/mol
same,"solvation free energy, 298 K",in O,-2.37 kcal/mol
[H][H],"solvation free energy, 298 K",in CCCCCCCCO,1.76 kcal/mol
same,"solvation free energy, 298 K",in O,2.35 kcal/mol
C=C1C=CC2(C(C)C)CC12 (stereo not given),"solvation free energy, 298 K",in O,-0.12 kcal/mol
Brc1cc(Br)cc(Br)c1,"solvation free energy, 298 K",[2],-8.73 kcal/mol
same,"solvation free energy, 298 K",in O,-1.91 kcal/mol
Nc1ccccc1,"solvation free energy, 298 K",in CC(C)=O,-7.84 kcal/mol
same,"solvation free energy, 298 K",in CC(C)CC(C)(C)C,-5.2 kcal/mol
same,"solvation free energy, 298 K",in CCCCCC,-5.43 kcal/mol
same,"solvation free energy, 298 K",in CCCCCCC,-5.38 kcal/mol
same,"solvation free energy, 298 K",in CCCCCCCC,-4.84 kcal/mol
same,"solvation free energy, 298 K",in CCCCCCCCCCCCCCCC,-5.36 kcal/mol
same,"solvation free energy, 298 K",in CCCCCl,-6.67 kcal/mol
same,"solvation free energy, 298 K",in CCOC(C)=O,-7.49 kcal/mol
same,"solvation free energy, 298 K",in O,-5.77 kcal/mol
CCCCCCCC(=O)OC,"solvation free energy, 298 K",in O,-2.04 kcal/mol
CCCC(=O)CC(=O)CC,"solvation free energy, 298 K",in O,-4.35 kcal/mol
CC1CCC(C)O1 (stereo not given),"solvation free energy, 298 K",in O,-2.92 kcal/mol
Clc1ccc(-c2cc(Cl)c(Cl)c(Cl)c2)cc1Cl,"solvation free energy, 298 K",in O,-3.79 kcal/mol
CC(C)CCl,"solvation free energy, 298 K",in C1CCOC1,-4.39 kcal/mol
same,"solvation free energy, 298 K",in C1CCOCC1,-4.28 kcal/mol
same,"solvation free energy, 298 K",in C=CCCCCCCCCCCCCCC,-3.51 kcal/mol
same,"solvation free energy, 298 K",in CCCCCC,-3.87 kcal/mol
same,"solvation free energy, 298 K",in COC(C)(C)C,-4.13 kcal/mol
same,"solvation free energy, 298 K",in O,0.03 kcal/mol
CCCOCCO,"solvation free energy, 298 K",in O,-6.4 kcal/mol
CCCCCCCNCc1ccc(C)cc1,"solvation free energy, 298 K",in O,-5.01 kcal/mol
C=CC#N,"solvation free energy, 298 K",in O,-3.34 kcal/mol
CCC(O)(CC)CC,"solvation free energy, 298 K",in CCCCCCCC,-5.42 kcal/mol
same,"solvation free energy, 298 K",in CCCCCCCCCC,-5.34 kcal/mol
